Here are results for 19 compounds from patent US12527774B2, “Estrogen-related receptor alpha modulators” (LEAD PHARMA HOLDING B.V., priority 2019, dated 2026).

In experiment [1] the target is ERRα ligand binding domain (ERRα-LBD) (Homo sapiens (Human), UniProt P11474). Briefly: ERRα AlphaScreen Assay. As to conditions: disruption of binding of ERRα-LBD protein to biotin-PGC1α-3 co-activator peptide; for IC50: read-out: mean pIC50 (converted). The class given is biochemical. In a few lines: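 His-SUMO-tagged ERRα-LBD from E. coli (0.81 nM) preincubated 1 h at room temperature with compound, streptavidin donor and Ni-chelate acceptor beads (10 μg/mL each), then 2 h with 15 nM biotin-PGC1α-3 peptide (aa 202–220). Buffer: 50 mM Tris-HCl pH 7.5, 100 mM NaCl, 5 mM TCEP, 1% DMSO. Four-parameter IC50; mean pIC50 of replicate values.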

The next experiment deals with full length ERRα (Homo sapiens (Human), UniProt P11474). Briefly: Full Length ERRα Reporter Gene Assay. The class given is cell-based. As to conditions: SK-BR-3 cells, ERRα-RE luciferase reporter, overnight incubation; read-out: mean pIC50 (converted). From the text: Full Length ERRα Reporter Gene Assay
A method was established to quantitatively screen the potency of compounds with inverse agonistic activity on the nuclear receptor ERRα of the human species. The assay allows intra-cellular screening of ERRα inverse agonists in SK-BR-3 cells using an over-expression construct coding full length ERRα and a reporter construct containing an ERRα Response Element (RE) and a luciferase gene for read out. The activity is expressed in log IC50 values and can be used to determine SAR of compound families or to de-select compounds.
In this assay, reporter cells are obtained by transient co-transfection of two constructs in SK-BR-3 cells using standard transfection techniques. The first construct contains a response element of the nuclear receptor ERRα (Plasmid pLP2175, Reporter construct ERRα-RE/luc2P, cloned variant of ERRα_v2_synthRE, Switchgear Genomics, Catalog Number S900089). This sequence drives the transcription of the luciferase reporter gene in response to binding of an ERRα protein encoded by the second construct (Plasmid pLP2124: full length ERRα expression construct using pcDNA3.1/Hygro(+) as background, Invitrogen Catalog Number V87020).
The day after transfection, cells were plated into 96 well plates, test compound was added and the plates were incubated overnight. Subsequently, the firefly luciferase activity was quantified using luciferase detection reagent and luminescence readout.
Detailed Assay Description
Transfection is performed on pre-seeded SK-BR-3 cells in a T175 flask. One transfected T175 flask is sufficient for seeding 3 to 4 MW96 plates the next day, depending on the confluency of the transfected cells.
Two different media are used in this protocol for cell treatment: 1) Culture medium, i.e. McCoy's 5a with phenol red (BioWhittaker Supplier Number 12-688F), 10% FBS and 1× Penstrep.; and, 2) Assay medium, i.e. McCoy's 5a Medium phenol red free (HyClone Product Code SH30270.01) with 2% Charcoal Stripped FBS and 1× Penstrep. Compound dilutions are prepared in assay medium.
Cells are seeded at least 2 days in advance to allow the cells to adhere well to flask before transfection. Cells should be 50-80% confluent at the day of transfection.
SKBR3 cells were transfected with the transcriptional reporter construct pLP2175 and the ERRα expression construct pLP2124 (as described above).
68 μL of Lipofectamine LTX transfection reagent (Invitrogen Catalog Number 15338-100) was added dropwise to 8.9 ml Opti-MEM I Reduced Serum Medium (Gibco Catalog Number 51985-026) and incubated at room temperature for 5 to 20 minutes. 8.9 ml of this reagent mixture was added to 22 μg pLP2175+22 μg pLP2124 (ratio 1:1 and total volume 10 ml), and incubated at room temperature for 25 minutes.
10 minutes before adding the transfection mix to SKBR3 cells in a T175 flask, the culture medium was refreshed with 20 mL culture medium. Subsequently, the 10 mL DNA-Opti-MEM-Lipofectamine mixture was gently added to the cells, followed by overnight (16-24 hours) incubation at 37° C. and 5% CO2.
To harvest SKBR3 cells from a T175 flask, first the medium was removed. Subsequently, cells were washed with Phosphate Buffered Saline (PBS) (Lonza), after which the PBS was removed. To dissociate the cells, 2 ml of TrypLE Express (Invitrogen) was added to the flask, followed by incubation at 37° C. for 5 minutes. The flask was tapped until cells were detached from the bottom. Cells were collected in 8 mL of culture medium (McCoy's 5α, 10% FBS, penstrep), to achieve a single cell suspension. After cell count, cells were spun down for 5 minutes at 300 g. Next cell pellets were re-suspended to 25000 cells/80 μl assay medium (McCoy's 5a phenol red free, 2% charcoal stripped FBS, penstrep).
For compound screening, the cells were harvested (as described above). 80 μL of cell suspension (25,000 cells) was plated per well into a white, flat bottom, tissue culture treated, 96 well screening plates (Greiner). […]
For orientation: Reporter assays use an easily measured gene product as a stand-in for the process of interest.

full length ERRα, sequence (P11474 whole entry): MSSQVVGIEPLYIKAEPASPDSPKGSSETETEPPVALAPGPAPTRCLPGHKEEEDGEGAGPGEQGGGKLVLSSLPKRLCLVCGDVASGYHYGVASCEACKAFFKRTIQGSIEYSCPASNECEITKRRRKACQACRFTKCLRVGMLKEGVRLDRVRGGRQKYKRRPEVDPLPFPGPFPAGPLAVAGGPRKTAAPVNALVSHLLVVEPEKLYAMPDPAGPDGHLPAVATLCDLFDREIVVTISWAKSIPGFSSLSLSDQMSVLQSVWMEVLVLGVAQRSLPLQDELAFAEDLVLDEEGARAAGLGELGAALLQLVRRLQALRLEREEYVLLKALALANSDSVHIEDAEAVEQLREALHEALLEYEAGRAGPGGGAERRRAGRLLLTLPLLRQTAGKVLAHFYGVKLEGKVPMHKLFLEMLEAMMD
ERRα ligand binding domain (ERRα-LBD), sequence (P11474 193-421): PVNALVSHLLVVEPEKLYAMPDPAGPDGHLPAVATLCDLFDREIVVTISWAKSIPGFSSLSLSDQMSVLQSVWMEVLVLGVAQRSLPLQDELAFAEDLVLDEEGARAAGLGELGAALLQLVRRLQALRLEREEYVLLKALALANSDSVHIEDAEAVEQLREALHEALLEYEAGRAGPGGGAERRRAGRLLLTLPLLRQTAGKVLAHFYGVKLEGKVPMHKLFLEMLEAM

Consider `COc1cc(C2CC(=O)Nc3n[nH]cc32)ccc1OCc1ccc(CCO)cc1C(F)(F)F` (single isomer, unassigned; (+)) [Example 211, (+)-4-(4-{[4-(2-hydroxyethyl)-2-(trifluoromethyl)phenyl]methoxy}-3-methoxyphenyl)-2H,4H,5H,6H,7H-pyrazolo[3,4-b]pyridin-6-one], for which the IC50 was 10 to 100 nM in experiment [1] and no more than 316 nM at full length ERRα.

Turning to `COc1cc(C2CC(=O)Nc3n[nH]cc32)ccc1OCc1ccc(C(F)(F)F)cc1C(F)(F)F` (centres unmarked) [Example 8, 4-(4-{[2,4-bis(trifluoromethyl)phenyl]methoxy}-3-methoxyphenyl)-2H,4H,5H,6H, 7H-pyrazolo[3,4-b]pyridin-6-one], the “mean pIC50” value in experiment [1] is given as no less than 8. Also, the IC50 on full length ERRα was no more than 316 nM.

Turning to `COc1cc(C2CC(=O)Nc3n[nH]cc32)ccc1OCc1ccccc1C(F)(F)F` (centres unmarked) [Example 1, 4-(3-methoxy-4-{[2-(trifluoromethyl)phenyl]methoxy}phenyl)-2H,4H,5H,6H, 7H-pyrazolo[3,4-b]pyridin-6-one], in experiment [1], the “mean pIC50” value is reported as no less than 8. The IC50 at full length ERRα was no more than 316 nM.

For the compound `COc1cc(C2CC(=O)Nc3n[nH]cc32)ccc1OCc1ccc(C=O)cc1C(F)(F)F` (centres unmarked) [Example 159, 4-[(2-methoxy-4-{6-oxo-2H,4H,5H,6H,7H-pyrazolo[3,4-b]pyridin-4-yl}phenoxy)methyl]-3-(trifluoromethyl)benzaldehyde], the IC50 was 10 to 100 nM in experiment [1] and no more than 316 nM on full length ERRα.

Take `COc1cc(C2CC(=O)Nc3n[nH]cc32)ccc1OCc1ccc(CCCO)cc1C(F)(F)F` (centres unmarked) [Example 149, 4-(4-{[4-(3-hydroxypropyl)-2-(trifluoromethyl)phenyl]methoxy}-3-methoxyphenyl)-2H,4H,5H,6H, 7H-pyrazolo[3,4-b]pyridin-6-one]: the “mean pIC50” value in experiment [1] is no less than 8. On full length ERRα, the IC50 was no more than 316 nM.

On to `CCOc1cc(C2CC(=O)Nc3n[nH]cc32)ccc1OCc1ccccc1C(F)(F)F` (centres unmarked) [Example 62, 4-(3-ethoxy-4-{[2-(trifluoromethyl)phenyl]methoxy}phenyl)-2H,4H,5H,6H, 7H-pyrazolo[3,4-b]pyridin-6-one], for which the “mean pIC50” value in experiment [1] is recorded as no less than 8. In addition, the IC50 on full length ERRα was no more than 316 nM.

For `CCc1ccc(COc2ccc(C3CC(=O)Nc4n[nH]cc43)cc2OC)c(C(F)(F)F)c1` (centres unmarked) [Example 144, 4-(4-{[4-ethyl-2-(trifluoromethyl)phenyl]methoxy}-3-methoxyphenyl)-2H,4H,5H,6H, 7H-pyrazolo[3,4-b]pyridin-6-one], the “mean pIC50” value in experiment [1] is no less than 8. The IC50 on full length ERRα is no more than 316 nM.

For the compound `COc1cc(C2CC(=S)Nc3n[nH]cc32)ccc1OCc1ccccc1C(F)(F)F` (centres unmarked) [Example 166, 4-(3-methoxy-4-{[2-(trifluoromethyl)phenyl]methoxy}phenyl)-2H,4H,5H,6H,7H-pyrazolo[3,4-b]pyridine-6-thione], the “mean pIC50” value in experiment [1] is reported as no less than 8. In addition, the IC50 at full length ERRα is no more than 316 nM.

As for `COc1cc(C2CC(=O)Nc3n[nH]cc32)ccc1COc1ccc(C(F)F)cc1C(F)(F)F` (centres unmarked) [Example 115, 4-(4-{[4-(difluoromethyl)-2-(trifluoromethyl)phenoxy]methyl}-3-methoxyphenyl)-2H,4H,5H,6H,7H-pyrazolo[3,4-b]pyridin-6-one], in experiment [1], the “mean pIC50” value was no less than 8. The IC50 at full length ERRα was no more than 316 nM.

In the case of `COc1cc(C2CC(=O)Nc3[nH]cnc32)ccc1OCc1ccccc1C(F)(F)F` (centres unmarked) [Example 89, 7-(3-methoxy-4-{[2-(trifluoromethyl)phenyl]methoxy}phenyl)-3H,4H,5H,6H, 7H-imidazo[4,5-b]pyridin-5-one], in experiment [1], the “mean pIC50” value is given as no less than 8. Moreover, the IC50 at full length ERRα was no more than 316 nM.

Turning to `COc1cc(C2CC(=O)Nc3n[nH]cc32)ccc1OCc1ccc(CC(O)CO)cc1C(F)(F)F` (centres unmarked) [Example 143, 4-(4-{[4-(2,3-dihydroxypropyl)-2-(trifluoromethyl)phenyl]methoxy}-3-methoxyphenyl)-2H,4H,5H,6H, 7H-pyrazolo[3,4-b]pyridin-6-one], the “mean pIC50” value in experiment [1] was no less than 8. Besides, on full length ERRα, the IC50 is no more than 316 nM.

For the compound `COc1cc(-c2cc(=O)[nH]c3n[nH]cc23)ccc1OCc1ccccc1C(F)(F)F` [Example 169, 4-(3-methoxy-4-{[2-(trifluoromethyl)phenyl]methoxy}phenyl)-2H,6H,7H-pyrazolo[3,4-b]pyridin-6-one], the “mean pIC50” value in experiment [1] is no less than 8. Further, on full length ERRα, the IC50 was no more than 316 nM.

In the case of `COc1cc(-c2cc(=O)[nH]c3n[nH]cc23)ccc1OCc1ccc(C(C)=O)cc1C(F)(F)F` [Example 174, 4-(4-{[4-acetyl-2-(trifluoromethyl)phenyl]methoxy}-3-methoxyphenyl)-2H,6H, 7H-pyrazolo[3,4-b]pyridin-6-one], the “mean pIC50” value in experiment [1] is no less than 8. The IC50 at full length ERRα was no more than 316 nM.

With `COc1cc(-c2cc(=O)[nH]c3n[nH]cc23)ccc1OCc1cccc(OC)c1C(F)(F)F` [Example 177, 4-(3-methoxy-4-{[3-methoxy-2-(trifluoromethyl)phenyl]methoxy}phenyl)-2H, 6H, 7H-pyrazolo[3,4-b]pyridin-6-one], the “mean pIC50” value in experiment [1] is on record as no less than 8. For the same compound, the IC50 at full length ERRα was no more than 316 nM.

Take `COc1cc(C2CC(=O)Nc3n[nH]cc32)ccc1OCc1ccc(CCO)cc1C(F)(F)F` (centres unmarked) [Example 155, 4-(4-{[4-(2-hydroxyethyl)-2-(trifluoromethyl)phenyl]methoxy}-3-methoxyphenyl)-2H,4H,5H,6H, 7H-pyrazolo[3,4-b]pyridin-6-one]: the “mean pIC50” value in experiment [1] is given as no less than 8. Besides, on full length ERRα, the IC50 was no more than 316 nM.

Consider `COc1cc(C2CC(=O)Nc3n[nH]cc32)ccc1OCc1ccc(C#CCO)cc1C(F)(F)F` (centres unmarked) [Example 146, 4-(4-{[4-(3-hydroxyprop-1-yn-1-yl)-2-(trifluoromethyl)phenyl]methoxy}-3-methoxyphenyl)-2H,4H,5H,6H, 7H-pyrazolo[3,4-b]pyridin-6-one], for which the “mean pIC50” value in experiment [1] was no less than 8. At full length ERRα, the IC50 is no more than 316 nM.

Take `COc1cc(C2CC(=O)Nc3n[nH]nc32)ccc1OCc1ccc(C(C)=O)cc1C(F)(F)F` (centres unmarked) [Example 93, 7-(4-{[4-acetyl-2-(trifluoromethyl)phenyl]methoxy}-3-methoxyphenyl)-2H,4H,5H,6H,7H-[1,2,3]triazolo[4,5-b]pyridin-5-one]: the IC50 in experiment [1] was 10 to 100 nM; on full length ERRα, no more than 316 nM.

For `O=C1CC(c2ccc(OCc3ccccc3C(F)(F)F)c(OC(F)F)c2)c2c[nH]nc2N1` (centres unmarked) [Example 68, 4-[3-(difluoromethoxy)-4-{[2-(trifluoromethyl)phenyl]methoxy}phenyl]-2H,4H,5H,6H, 7H-pyrazolo[3,4-b]pyridin-6-one], in experiment [1], the “mean pIC50” value is no less than 8. Moreover, the IC50 on full length ERRα is no more than 316 nM.

`COc1cc(C2CC(=O)Nc3n[nH]cc32)ccc1OCc1ccc(CC#N)cc1C(F)(F)F` (centres unmarked) [Example 147, 2-[4-(2-methoxy-4-{6-oxo-2H,4H,5H,6H, 7H-pyrazolo[3,4-b]pyridin-4-yl}phenoxymethyl)-3-(trifluoromethyl)phenyl]acetonitrile]: the IC50 in experiment [1] was 100 to 1000 nM; at full length ERRα, no more than 316 nM.
